Data: article PMC4493701, “Quantitative and qualitative analysis of the novel antitumor 1,3,4-oxadiazole derivative (GLB) and its metabolites using HPLC-UV and UPLC-QTOF-MS” (Scientific Reports, 2015)

Legend:
[1] = Stability of GLB in rat plasma QC samples under storage and processing conditions (HPLC-UV); assay type: in vitro ADME; conditions: for Measured concentration / Accuracy (RE, %): rat plasma
Experimental: The stability of GLB in rat plasma was determined by analyzing QC samples that was stored in different conditions, including: 1) room-temperature, 2) light irradiation for 24 hours, 3) post-preparation (the extracted samples stored at 4 °C for 48 hours and one week), 4) three cycles of freeze and thaw (freezing at −20 °C for 24 hours and thawing at room temperature), 5) long-term stored in −20 °C for up to 2 weeks, 1 month and 3 months, respectively. All the QC samples for stability assessment were analyzed in triplicate.
Under manifold storage and processing conditions, the stability of GLB in rat plasma was evaluated by analyzing three replicates for QC samples at 0.025, 0.5 and 4 μg/mL.
Calibration standard solutions were prepared by adding 25 μL of working standard solutions of GLB and IS into 375 μL blank rat plasma to achieve final concentrations of GLB of 0.01, 0.025, 0.05, 0.1, 0.5, 1, 4 and 8 μg/mL, and IS concentration of 1 μg/mL, respectively. QC samples were prepared in the same way using the low, medium and high concentrations of 0.025, 0.5 and 4 μg/mL, respectively.

[2] = test system: tumor angiogenesis, growth and metastasis; set-up: method as in PMID 15960897; conditions: in vivo; cited from earlier work
[3] = Identification of GLB metabolites in rat plasma by UPLC-ESI-QTOF-MS; assay type: in vivo; conditions: rat plasma after oral GLB 100 mg/kg; tentative, no metabolite standards
Excerpt: Because of two unknown chromatographic peaks were detected by HPLC after oral dose GLB in rat plasma, their structures were further identified and the metabolic pathways were investigated using UPLC-MS method. […] Based on the chromatographic retention times and mass spectral patterns (m/z and mass errors) between the parent drug and their product ions, the structures of metabolites of GLB could be estimated, in spite of lacking standards of metabolites. […] Metabolites M1 and M2 were detected at shorter retention times (2.56 and 2.86 min, respectively), and heavier molecular ions as m/z 529 (497 + 32 Da) and 513 (497 + 16 Da), respectively.
Furthermore, under the tandem mass spectrometry positive scan mode condition, the parent compound GLB was detected as protonated molecular ions at m/z 499 ([M+H]+) and sodium adduct (520, [M+Na]+), and fragment ion m/z 441, respectively (Fig. 3C). The metabolite M1 was detected as protonated molecular ions at m/z 529 ([M+H]+) and sodium adduct (m/z […], [M+Na]+), and fragment ions m/z 457, 449, 435 and 401, respectively. […]
The structure identifications of GLB and its metabolites were analyzed using a validated ultra-performance liquid chromatography- electrospray ionization-quadrupole-time-of-flight mass spectrometry (UPLC-ESI-QTOF-MS) method, as described in previous publications. […]

[4] = Freezing storage −20 °C for 1 month, actual concentration 0.025 μg/mL
[5] = Freezing storage −20 °C for 2 weeks, actual concentration 0.025 μg/mL
[6] = Freezing storage −20 °C for 2 weeks, actual concentration 0.5 μg/mL
[7] = Freezing storage −20 °C for 2 weeks, actual concentration 4 μg/mL
[8] = Light and room temperature for 24 hours, actual concentration 0.025 μg/mL
[9] = Light and room temperature for 24 hours, actual concentration 0.5 μg/mL
[10] = Light and room temperature for 24 hours, actual concentration 4 μg/mL
[11] = Post-preparative, 4 °C for 1 week, actual concentration 0.025 μg/mL
[12] = Post-preparative, 4 °C for 1 week, actual concentration 0.5 μg/mL
[13] = Post-preparative, 4 °C for 1 week, actual concentration 4 μg/mL
[14] = Post-preparative, 4 °C for 48 hours, actual concentration 0.025 μg/mL
[15] = Post-preparative, 4 °C for 48 hours, actual concentration 0.5 μg/mL
[16] = Post-preparative, 4 °C for 48 hours, actual concentration 4 μg/mL

For CC(=O)N1N=C(c2ccc(Br)cc2)OC12C1OC(C)(C)OC1COC21COC(C)(C)O1 (stereo not shown) [GLB, Fructose-based 3-acetyl-2,3-dihydro-1,3,4-oxadiazole], the “Stability in rat plasma” value ([1]; 24 hours, 48 hours and 1 week at 4 °C, 2 weeks, 1 month and 3 months at −20 °C, three freeze-thaw cycles) was “stable”, the Measured concentration ([1]; Freeze-thawing 3 cycles (−20 °C), actual concentration 0.025 μg/mL) was 0.025 ± 0.001 µg/mL and the Measured concentration ([1]; Freeze-thawing 3 cycles (−20 °C), actual concentration 0.5 μg/mL) was 0.467 ± 0.036 µg/mL. The Measured concentration ([1]; Freeze-thawing 3 cycles (−20 °C), actual concentration 4 μg/mL) was 3.732 ± 0.227 µg/mL, the “Accuracy (RE, %)” value [1, 4] was 8.66% and the Measured concentration [1, 4] was 0.027 ± 0.002 µg/mL. For the same compound, the Measured concentration ([1]; Freezing storage −20 °C for 1 month, actual concentration 0.5 μg/mL) was 0.490 ± 0.015 µg/mL, the Measured concentration ([1]; Freezing storage −20 °C for 1 month, actual concentration 4 μg/mL) was 4.097 ± 0.213 µg/mL and the “Accuracy (RE, %)” value [1, 5] was 8.17%. The Measured concentration [1, 5] was 0.027 ± 0.001 µg/mL, the “Accuracy (RE, %)” value [1, 6] was 7.10% and the Measured concentration [1, 6] was 0.535 ± 0.009 µg/mL. The “Accuracy (RE, %)” value [1, 7] was 9.84%, the Measured concentration [1, 7] was 4.393 ± 0.090 µg/mL and the Measured concentration ([1]; Freezing storage −20 °C for 3 months, actual concentration 0.025 μg/mL) was 0.023 ± 0.002 µg/mL. For the same compound, the Measured concentration ([1]; Freezing storage −20 °C for 3 months, actual concentration 0.5 μg/mL) was 0.487 ± 0.003 µg/mL, the Measured concentration ([1]; Freezing storage −20 °C for 3 months, actual concentration 4 μg/mL) was 3.918 ± 0.063 µg/mL and the “Accuracy (RE, %)” value [1, 8] was 4.17%. The Measured concentration [1, 8] was 0.026 ± 0.002 µg/mL, the “Accuracy (RE, %)” value [1, 9] was −2.79% and the Measured concentration [1, 9] was 0.486 ± 0.027 µg/mL. The “Accuracy (RE, %)” value [1, 10] was −1.94%, the Measured concentration [1, 10] was 3.922 ± 0.055 µg/mL and the “Accuracy (RE, %)” value [1, 11] was 3.83%. The Measured concentration [1, 11] was 0.026 ± 0.001 µg/mL, the “Accuracy (RE, %)” value [1, 12] was −14.4% and the Measured concentration [1, 12] was 0.428 ± 0.010 µg/mL. For the same compound, the “Accuracy (RE, %)” value [1, 13] was −8.30%, the Measured concentration [1, 13] was 3.668 ± 0.219 µg/mL and the “Accuracy (RE, %)” value [1, 14] was 5.31%. For the same compound, the Measured concentration [1, 14] was 0.026 ± 0.001 µg/mL, the “Accuracy (RE, %)” value [1, 15] was 5.62% and the Measured concentration [1, 15] was 0.528 ± 0.007 µg/mL. For the same compound, the “Accuracy (RE, %)” value [1, 16] was 5.83%, the Measured concentration [1, 16] was 4.233 ± 0.196 µg/mL and the “Effect on tumor angiogenesis, growth and metastasis” value [2] was “block the tumor angiogenesis, growth and metastasis in vivo”.
For CC(=O)N1N=C(c2ccc(Br)cc2)OC1(C1OC(C)(C)OC1C(=O)O)C1(O)COC(C)(C)O1 (stereo not shown) [M1], the “Identification (metabolic modification of GLB)” value [3] was “Di-hydroxylation”.
